Laboratory results reported in patent US10647713B2 (Nimbus Lakshmi, Inc., priority 2016, dated 2020).

Target: human TYK2 (JH2domain-pseudokinase) (Homo sapiens (Human), UniProt P29597)
Assay: TYK2 JH2 Domain Binding Assay (KINOMEscan, DiscoveRx)
Conditions: 11-point dilution, duplicate
Summary of the method: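 TYK2 JH2 (G556–D888)–NFkB DBD fusion, DNA-tagged, from HEK293 extracts (<0.1 nM) competed against immobilised biotinylated ligand for 1 h at room temperature, 0.9% DMSO. Bead-retained kinase quantified by qPCR; Kd from 11-point 3-fold series (top 30,000 nM, duplicate), Hill fit with slope −1.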

Chain of human TYK2 (JH2domain-pseudokinase) (P29597 556-888): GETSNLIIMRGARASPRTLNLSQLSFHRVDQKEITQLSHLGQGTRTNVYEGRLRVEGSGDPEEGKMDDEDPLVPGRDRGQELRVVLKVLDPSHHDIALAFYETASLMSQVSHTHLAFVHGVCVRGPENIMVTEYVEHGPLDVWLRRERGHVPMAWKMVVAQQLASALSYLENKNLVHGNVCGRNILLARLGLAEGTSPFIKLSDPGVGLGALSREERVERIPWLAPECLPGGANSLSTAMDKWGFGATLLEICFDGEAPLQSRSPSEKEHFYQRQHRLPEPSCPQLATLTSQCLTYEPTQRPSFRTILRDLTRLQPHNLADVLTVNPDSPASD

CS(=O)(=O)c1cc(F)ccc1Nc1cc(Nc2cccc(C#N)n2)nc2[nH]c(C(F)F)nc12 [I-552, 6-((2-(difluoromethyl)-7-((4-fluoro-2-(methylsulfonyl)phenyl)amino)-3H-imidazo[4,5-b]pyridin-5-yl)amino)picolinonitrile]
Kd: 0.1 to 0.5 nM

Cc1nc2c(Nc3ccc(F)cc3S(C)(=O)=O)cc(Nc3cccc(C#N)n3)nc2[nH]1 [I-553, 6-((7-((4-fluoro-2-(methylsulfonyl)phenyl)amino)-2-methyl-3H-imidazo[4,5-b]pyridin-5-yl)amino)picolinonitrile]
Kd: 0.1 to 0.5 nM

COc1cc(-c2nn(C)cc2C)ccc1Nc1cc(NC(=O)C2CC2)nc2[nH]c(C(F)F)nc12 [I-554, N-(2-(difluoromethyl)-7-((4-(1,4-dimethyl-1H-pyrazol-3-yl)-2-methoxyphenyl)amino)-3H-imidazo[4,5-b]pyridin-5-yl)cyclopropanecarboxamide]
Kd: 1 to 10 nM

COc1cc(-c2nn(C)cc2C)ccc1Nc1cc(NC(=O)C2CC2)nc2[nH]c(C)nc12 [I-555, N-(7-((4-(1,4-dimethyl-1H-pyrazol-3-yl)-2-methoxyphenyl)amino)-2-methyl-3H-imidazo[4,5-b]pyridin-5-yl)cyclopropanecarboxamide]
Kd: 0.5 to 1 nM

COc1c(Nc2cc(NC(=O)C3CC3)nc3[nH]c(C(F)F)nc23)ccc(-c2nn(C)cc2C)c1F [I-556, N-(2-(difluoromethyl)-7-((4-(1,4-dimethyl-1H-pyrazol-3-yl)-3-fluoro-2-methoxyphenyl)amino)-3H-imidazo[4,5-b]pyridin-5-yl)cyclopropanecarboxamide]
Kd: > 10 nM

COc1c(Nc2cc(NC(=O)C3CC3)nc3[nH]c(C)nc23)ccc(-c2nn(C)cc2C)c1F [I-557, N-(7-((4-(1,4-dimethyl-1H-pyrazol-3-yl)-3-fluoro-2-methoxyphenyl)amino)-2-methyl-3H-imidazo[4,5-b]pyridin-5-yl)cyclopropanecarboxamide]
Kd: > 10 nM

COc1c(Nc2cc(Nc3cccc(C#N)n3)nc3[nH]c(C(F)F)nc23)cccc1-c1nccs1 [I-558, 6-((2-(difluoromethyl)-7-((2-methoxy-3-(thiazol-2-yl)phenyl)amino)-3H-imidazo[4,5-b]pyridin-5-yl)amino)picolinonitrile]
Kd: 1 to 10 nM

COc1cc(-c2nc(C)c(C)s2)ccc1Nc1cc(NC(=O)C2CC2)nc2[nH]c(C)nc12 [I-559, N-(7-((4-(4,5-dimethylthiazol-2-yl)-2-methoxyphenyl)amino)-2-methyl-3H-imidazo[4,5-b]pyridin-5-yl)cyclopropanecarboxamide]
Kd: 1 to 10 nM

Cc1nc2c(Nc3ccc(-c4nn(C)c(C)c4C)cc3S(C)(=O)=O)cc(NC(=O)C3CC3)nc2[nH]1 [I-560, N-(2-methyl-7-((2-(methylsulfonyl)-4-(1,4,5-trimethyl-1H-pyrazol-3-yl)phenyl)amino)-3H-imidazo[4,5-b]pyridin-5-yl)cyclopropanecarboxamide]
Kd: < 0.1 nM

Cc1nc2c(Nc3ccc(-c4oc(C)cc4C)cc3S(C)(=O)=O)cc(NC(=O)C3CC3)nc2[nH]1 [I-561, N-(7-((4-(3,5-dimethylfuran-2-yl)-2-(methylsulfonyl)phenyl)amino)-2-methyl-3H-imidazo[4,5-b]pyridin-5-yl)cyclopropanecarboxamide]
Kd: 1 to 10 nM

Cc1nc2c(Nc3ccc(-c4cnn(C5CC5)c4C)cc3S(C)(=O)=O)cc(NC(=O)C3CC3)nc2[nH]1 [I-562, N-(7-((4-(1-cyclopropyl-5-methyl-1H-pyrazol-4-yl)-2-(methylsulfonyl)phenyl)amino)-2-methyl-3H-imidazo[4,5-b]pyridin-5-yl)cyclopropanecarboxamide]
Kd: < 0.1 nM

Cc1cc(Nc2cc(Nc3ccc(C4=NC(C)(C)CS4)cc3S(C)(=O)=O)c3nc(C(F)F)[nH]c3n2)nc(C)n1 [I-563, 2-(difluoromethyl)-N7-(4-(4,4-dimethyl-4,5-dihydrothiazol-2-yl)-2-(methylsulfonyl)phenyl)-N5-(2,6-dimethylpyrimidin-4-yl)-3H-imidazo[4,5-b]pyridine-5,7-diamine]
Kd: 1 to 10 nM

Cc1cc(Nc2cc(Nc3ccc(C4=NC(C)(C)CS4)cc3S(C)(=O)=O)c3nc(C)[nH]c3n2)nc(C)n1 [I-564, N7-(4-(4,4-dimethyl-4,5-dihydrothiazol-2-yl)-2-(methylsulfonyl)phenyl)-N5-(2,6-dimethylpyrimidin-4-yl)-2-methyl-3H-imidazo[4,5-b]pyridine-5,7-diamine]
Kd: 0.1 to 0.5 nM

Cc1ncc(Nc2cc(Nc3ccc(C4=NC(C)(C)CS4)cc3S(C)(=O)=O)c3nc(C(F)F)[nH]c3n2)nc1C [I-565, 2-(difluoromethyl)-N7-(4-(4,4-dimethyl-4,5-dihydrothiazol-2-yl)-2-(methylsulfonyl)phenyl)-N5-(5,6-dimethylpyrazin-2-yl)-3H-imidazo[4,5-b]pyridine-5,7-diamine]
Kd: 1 to 10 nM

Cc1nc2c(Nc3ccc(C4=NC(C)(C)CS4)cc3S(C)(=O)=O)cc(Nc3cnc(C)c(C)n3)nc2[nH]1 [I-566, N7-(4-(4,4-dimethyl-4,5-dihydrothiazol-2-yl)-2-(methylsulfonyl)phenyl)-N5-(5,6-dimethylpyrazin-2-yl)-2-methyl-3H-imidazo[4,5-b]pyridine-5,7-diamine]
Kd: 1 to 10 nM

CC1(C)CSC(c2ccc(Nc3cc(NC(=O)C4CC4)nc4[nH]c(C(F)F)nc34)c(S(C)(=O)=O)c2)=N1 [I-567, N-(2-(difluoromethyl)-7-((4-(4,4-dimethyl-4,5-dihydrothiazol-2-yl)-2-(methylsulfonyl)phenyl)amino)-3H-imidazo[4,5-b]pyridin-5-yl)cyclopropanecarboxamide]
Kd: 1 to 10 nM

Cc1nc2c(Nc3ccc(C4=NC(C)(C)CS4)cc3S(C)(=O)=O)cc(NC(=O)C3CC3)nc2[nH]1 [I-568, N-(7-((4-(4,4-dimethyl-4,5-dihydrothiazol-2-yl)-2-(methylsulfonyl)phenyl)amino)-2-methyl-3H-imidazo[4,5-b]pyridin-5-yl)cyclopropanecarboxamide]
Kd: 0.5 to 1 nM

Cc1nc2c(Nc3ccc([C@H]4CCCO4)cc3S(C)(=O)=O)cc(Nc3cccc(C#N)n3)nc2[nH]1 [I-569, (R)-6-((2-methyl-7-((2-(methylsulfonyl)-4-(tetrahydrofuran-2-yl)phenyl)amino)-3H-imidazo[4,5-b]pyridin-5-yl)amino)picolinonitrile]
Kd: < 0.1 nM

Cc1nc2c(Nc3ccc([C@@H]4CCCO4)cc3S(C)(=O)=O)cc(Nc3cccc(C#N)n3)nc2[nH]1 [I-570, (S)-6-((2-methyl-7-((2-(methylsulfonyl)-4-(tetrahydrofuran-2-yl)phenyl)amino)-3H-imidazo[4,5-b]pyridin-5-yl)amino)picolinonitrile]
Kd: 0.1 to 0.5 nM

CS(=O)(=O)c1cc(C2CCC(F)(F)CO2)ccc1Nc1cc(NC(=O)C2CC2)nc2[nH]c(C(F)F)nc12 (centres unmarked) [I-571, N-(2-(difluoromethyl)-7-((4-(5,5-difluorotetrahydro-2H-pyran-2-yl)-2-(methylsulfonyl)phenyl)amino)-3H-imidazo[4,5-b]pyridin-5-yl)cyclopropanecarboxamide]
Kd: 0.1 to 0.5 nM

Cc1nc2c(Nc3ccc(C4CCC(F)(F)CO4)cc3S(C)(=O)=O)cc(NC(=O)C3CC3)nc2[nH]1 (centres unmarked) [I-572, N-(7-((4-(5,5-difluorotetrahydro-2H-pyran-2-yl)-2-(methylsulfonyl)phenyl)amino)-2-methyl-3H-imidazo[4,5-b]pyridin-5-yl)cyclopropanecarboxamide]
Kd: 0.1 to 0.5 nM

COc1c(Nc2cc(Nc3cccc(C#N)n3)nc3[nH]c(C)nc23)cccc1-c1nccs1 [I-573, 6-((7-((2-methoxy-3-(thiazol-2-yl)phenyl)amino)-2-methyl-3H-imidazo[4,5-b]pyridin-5-yl)amino)picolinonitrile]
Kd: 1 to 10 nM

COc1c(Nc2cc(Nc3cccc(C#N)n3)nc3[nH]c(C(F)F)nc23)cccc1-c1cnn(C)n1 [I-574, 6-((2-(difluoromethyl)-7-((2-methoxy-3-(2-methyl-2H-1,2,3-triazol-4-yl)phenyl)amino)-3H-imidazo[4,5-b]pyridin-5-yl)amino)picolinonitrile]
Kd: 0.1 to 0.5 nM

Cc1nc2c(Nc3ccc(C4CCCO4)cc3S(C)(=O)=O)cc(Nc3ccc(C(C)C)c(C#N)n3)nc2[nH]1 (centres unmarked) [I-575, 3-isopropyl-6-((2-methyl-7-((2-(methylsulfonyl)-4-(tetrahydrofuran-2-yl)phenyl)amino)-3H-imidazo[4,5-b]pyridin-5-yl)amino)picolinonitrile]
Kd: 0.1 to 0.5 nM

COc1c(Nc2cc(NC(=O)C3CC3)nc3[nH]c(C(F)F)nc23)ccc(-c2cc(C)n(C)n2)c1F [I-576, N-(2-(difluoromethyl)-7-((4-(1,5-dimethyl-1H-pyrazol-3-yl)-3-fluoro-2-methoxyphenyl)amino)-3H-imidazo[4,5-b]pyridin-5-yl)cyclopropanecarboxamide]
Kd: > 10 nM

COc1c(Nc2cc(NC(=O)C3CC3)nc3[nH]c(C)nc23)ccc(-c2cc(C)n(C)n2)c1F [I-577, N-(7-((4-(1,5-dimethyl-1H-pyrazol-3-yl)-3-fluoro-2-methoxyphenyl)amino)-2-methyl-3H-imidazo[4,5-b]pyridin-5-yl)cyclopropanecarboxamide]
Kd: > 10 nM

Cc1cc(Nc2cc(Nc3ccc(-c4nc(C)sc4C)cc3S(C)(=O)=O)c3nc(C(F)F)[nH]c3n2)nc(C)n1 [I-578, 2-(difluoromethyl)-N5-(2,6-dimethylpyrimidin-4-yl)-N7-(4-(2,5-dimethylthiazol-4-yl)-2-(methylsulfonyl)phenyl)-3H-imidazo[4,5-b]pyridine-5,7-diamine]
Kd: 0.1 to 0.5 nM

Cc1cc(Nc2cc(Nc3ccc(-c4nc(C)sc4C)cc3S(C)(=O)=O)c3nc(C)[nH]c3n2)nc(C)n1 [I-579, N5-(2,6-dimethylpyrimidin-4-yl)-N7-(4-(2,5-dimethylthiazol-4-yl)-2-(methylsulfonyl)phenyl)-2-methyl-3H-imidazo[4,5-b]pyridine-5,7-diamine]
Kd: < 0.1 nM

Cc1nc(-c2ccc(Nc3cc(Nc4cnc(C)c(C)n4)nc4[nH]c(C(F)F)nc34)c(S(C)(=O)=O)c2)c(C)s1 [I-580, 2-(difluoromethyl)-N5-(5,6-dimethylpyrazin-2-yl)-N7-(4-(2,5-dimethylthiazol-4-yl)-2-(methylsulfonyl)phenyl)-3H-imidazo[4,5-b]pyridine-5,7-diamine]
Kd: 0.1 to 0.5 nM
